# Experimental data: patent US5126336A, “Antibiotic C-3 catechol-substituted cephalosporin compounds, compositions and method of use thereof” (Bristol-Myers Squibb Company, priority 1990, dated 1992)
# Where two headings read alike, the source gives them in different places.
# Assays:
# [1] = test system: Gn-Ib: Cephalothin(CET)-resistant E. coli (3) and Kl. pneumoniae (2); test: MIC, two-fold serial agar dilution, Gn-Ib; format: cell-based; settings: for MIC: Escherichia coli
# Experimental: (§1) Minimum inhibitory concentrations (MICs) of the present series of cephalosporins were determined against 32 strains of test organisms by two-fold serial agar dilution method in Mueller-Hinton agar. Geometric means of MICs were calculated against six groups of the test organisms which are classified as follows and summarized in Table 1.
# Gn-Ib Cephalothin(CET)-resistant E. coli (3) and Kl.
# P. aeruginosa A9843A [2] = test: In vivo antibacterial activity, P. aeruginosa A9843A infection; parameters: species or system mice; settings: for ED50: Pseudomonas aeruginosa, A9843A, in Mus musculus, im, read-out: PD50
# Experimental: (§2) In vivo antibacterial activity was determined against three bacterial infections (S. aureus Smith, E. coli Juhl and P. aeruginosa A9843A) by intramuscular administration to mice just after the bacterial challenge. PD50 values are summarized in Table 3 in comparsion with the MIC values against the corresponding organisms.
# S. aureus Smith [3] = test: In vivo antibacterial activity, S. aureus Smith infection; settings: mice, im just after bacterial challenge; for ED50: Staphylococcus aureus, read-out: PD50
# Experimental: as §2
# [4] = test system: Gn-Ia: Cephalothin(CET)-sensitive E. coli (2), Kl. pneumoniae (1) and Pr. mirabilis (2); test: MIC, two-fold serial agar dilution, Gn-Ia; format: cell-based; settings: 5 strains; for MIC: read-out: Geometric mean of MIC
# Experimental: as §1
# Gn-Ia Cephalothin(CET)-sensitive E. coli (2), Kl.
# pneumoniae (1) and Pr. mirabilis (2).
# E. coli Juhl = test: In vivo antibacterial activity, E. coli Juhl infection; settings: mice, im just after bacterial challenge; for ED50: Escherichia coli, read-out: PD50
# Experimental: as §2
# [5] = test system: Gn-II: M.morganii (1), Ent. cloacae (2) and Ser. marcescens (2); test: MIC, two-fold serial agar dilution, Gn-II; format: cell-based; settings: for MIC: read-out: Geometric mean of MIC
# Experimental: as §1
# Gn-II M.morganii (1), Ent. cloacae (2) and Ser.
# [6] = test system: Gp-Ia: Penicillin(PC)-sensitive S. aureus (5 strains); test: MIC, two-fold serial agar dilution, Gp-Ia; format: cell-based; settings: for MIC: Staphylococcus aureus, read-out: Geometric mean of MIC
# Experimental: as §1
# Gp-Ia Penicillin(PC)-sensitive S. aureus (5 strains).
# [7] = test system: Gn-III: Ps. aeruginosa (7); test: MIC, two-fold serial agar dilution, Gn-III; format: cell-based; settings: for MIC: Pseudomonas aeruginosa, read-out: Geometric mean of MIC
# Experimental: as §1
# Gn-III Ps. aeruginosa (7).
# [8] = test system: Gp-Ib: Penicillin(PC)-resistant S. aureus (5); test: MIC, two-fold serial agar dilution, Gp-Ib; format: cell-based; settings: 5 strains; for MIC: Staphylococcus aureus, read-out: Geometric mean of MIC
# Experimental: as §1
# Gp-Ib Penicillin(PC)-resistant S. aureus (5).
# S. aureus Smith [9] = test: MIC, agar dilution; format: cell-based; settings: S. aureus Smith (Table 3)
# Experimental: as §1, §2
# (§3) Medium; MuellerHinton agar (pH = 7.2)
# (§4) Incubation temperature: 32° C., 18 hr
# (§5) Inoculum size; 10^6 cells/ml
# E. coli Juhl A15119 = test: MIC, agar dilution; format: cell-based; settings: E. coli Juhl (Table 3)
# Experimental: as §1, §2, §3, §4, §5
# P. aeruginosa A9843A [10] = test: MIC, agar dilution; format: cell-based
# Experimental: as §1, §2, §3, §4, §5
# [11] = read-out: Geometric mean of MIC, Gn-Ib, 5 strains, Mueller-Hinton agar
# [12] = Gn-III, 7 strains, Mueller-Hinton agar
# [13] = Staphylococcus aureus, 18 h, read-out: MIC
# [14] = Escherichia coli, JUHLA15119, 18 h, read-out: MIC
# [15] = Pseudomonas aeruginosa, A9843A, 18 h
# [16] = Gn-II, 5 strains, Mueller-Hinton agar
Structure (SMILES),"MIC [1, 11] [µg/mL]",ED50 (P. aeruginosa A9843A [2]) [mg/kg],ED50 (S. aureus Smith [3]) [mg/kg],MIC ([4]; Mueller-Hinton agar) [µg/mL],ED50 (E. coli Juhl) [mg/kg],MIC [5] [µg/mL],MIC ([6]; Mueller-Hinton agar) [µg/mL],"MIC [7, 12] [µg/mL]",MIC ([8]; Mueller-Hinton agar) [µg/mL],MIC (S. aureus Smith [9]; [13]) [µg/mL],MIC (E. coli Juhl A15119; [14]) [µg/mL],MIC (P. aeruginosa A9843A [10]; [15]) [µg/mL],further results
"CC(C)(O/N=C(\C(=O)NC1C(=O)N2C(C(=O)[O-])=C(/C=C\C[N+]3(C)Cc4cc(O)c(O)cc4C3)CS[C@H]12)c1csc(N)n1)C(=O)O (stereo partly drawn) [Compound Ib, 7-[(Z)-2-(2-aminothiazol-4-yl)-2-(1-carboxy-1-methylethoxy-imino)acetamido]-3-[(Z)-3-(5,6-dihydroxy-2-methyl-2-isoindolinio)-1-propen-1-yl]-3-cephem-4-carboxylate]",0.26,2,3.8,0.46,0.1,0.91,25,1.4,50,25,0.8,1.6,
"CO/N=C(\C(=O)NC1C(=O)N2C(C(=O)[O-])=C(/C=C/C[N+]3(C)Cc4cc(O)c(O)cc4C3)CS[C@H]12)c1csc(N)n1 (stereo partly drawn) [Compound Id, 7-[(Z)-2-(2-aminothiazol-4-yl)-2-methoxyiminoacetamido]-3-[(E)-3-(5,6-dihydroxy-2-methyl-2-isoindolinio)-1-propen-1-yl]-3-cephem-4-carboxylate]",0.46,6.8,0.33,0.15,0.012,0.79,1.6,2.6,3.1,1.6,0.4,3.1,
"CO/N=C(\C(=O)NC1C(=O)N2C(C(=O)[O-])=C(/C=C\C[N+]3(C)Cc4cc(O)c(O)cc4C3)CS[C@H]12)c1csc(N)n1 (stereo partly drawn) [Compound Ie, 7-[(Z)-2-(2-amino-thiazol-4-yl)-2-methoxyiminoacetamido]-3-[(Z)-3-(5,6-dihydroxy-2-methyl-2-isoindolinio)-1-propen-1-yl]-3-cephem-4-carboxylate]",0.26,9.9,0.72,0.13,0.025,,4.7,2.9,6.3,6.3,0.2,3.1,"MIC [5, 16]: 0.91 µg/mL"
"CC(C)(O/N=C(\C(=O)NC1C(=O)N2C(C(=O)O)=C(/C=C/Cn3ccc4cc(=O)c(O)cc-4c3)CS[C@H]12)c1csc(N)n1)C(=O)O (stereo partly drawn) [Iv, 7-[(Z)-2-(2-Aminothiazol-4-yl)-2-(1-carboxy-1-methylethoxyimino)acetamido]-3-[(E)-3-(2,6-dihydro-7-hydroxy-6-oxo-isoquinolin-2-yl)-1-propen-1-yl]-3-cephem-4-carboxylic acid]",0.0072,0.17,0.98,0.017,0.019,0.076,12.5,,16,12.5,0.1,0.1,"MIC ([1]; read-out: Geometric mean of MIC, second run, Gn-Ib, 5 strains): 0.0083 µg/mL; MIC ([4]; second run): 0.0094 µg/mL; Geometric mean of MIC ([5]; second run, Gn-II, 5 strains): 0.076 µg/mL; MIC ([6]; second run): 16 µg/mL; MIC [7]: 0.11 µg/mL; MIC ([7]; second run, Gn-III, 7 strains): 0.15 µg/mL; MIC ([8]; second run): 16 µg/mL"
"CO/N=C(\C(=O)NC1C(=O)N2C(C(=O)O)=C(/C=C/Cn3ccc4cc(=O)c(O)cc-4c3)CS[C@H]12)c1csc(N)n1 (stereo partly drawn) [Iw, 7-[(Z)-2-(2-Aminothiazol-4-yl)-2-methoxyimino-acetamido]-3-[(E)-3-(2,6-dihydro-7-hydroxy-6-oxo-isoquino-lin-2-yl)-1-propen-1-yl]-3-cephem-4-carboxylic acid]",,,,,,,,,,,,,"Geometric mean of MIC ([1]; Gn-Ib, 5 strains, Mueller-Hinton agar): 0.022 µg/mL; PD50 (P. aeruginosa A9843A [2]; mice, im just after bacterial challenge, P. aeruginosa 9843A): 0.39 mg/kg; PD50 (S. aureus Smith [3]): 0.18 mg/kg; Geometric mean of MIC ([4]; Mueller-Hinton agar): 0.015 µg/mL; PD50 (E. coli Juhl): 0.19 mg/kg; Geometric mean of MIC [5, 16]: 0.13 µg/mL; Geometric mean of MIC ([6]; Mueller-Hinton agar): 0.8 µg/mL; Geometric mean of MIC [7, 12]: 13.0 µg/mL; Geometric mean of MIC ([8]; Mueller-Hinton agar): 1.4 µg/mL; MIC (S. aureus Smith [9]): 0.8 µg/mL; MIC (E. coli Juhl A15119): 0.1 µg/mL; MIC (P. aeruginosa A9843A [10]; P. aeruginosa 9843A (Table 3)): 12.5 µg/mL"
